Source: the NIST ThermoML archive (doi:10.1016/j.jct.2006.03.010)
Numbers after ± are expanded uncertainties.

Assay: xn = mol fraction of the nth substance listed
Details: 101 kPa, Liquid; for speed of sound: Linear variable-path acoustic interferometer

ClC(Cl)Cl [trichloromethane] + CCCO
Details | mass density, 298.15 K [kg/m3] | mass density, 308.15 K [kg/m3] | speed of sound, 298.15 K [m/s] | speed of sound, 308.15 K [m/s] | viscosity, 298.15 K [mPa·s] | viscosity, 308.15 K [mPa·s]
x1 = 0.0521 | 838.68 ± 0.45 | 829.81 ± 0.49 | 1190 ± 3 | 1155 ± 3 | 1.84 ± 0.023 | 1.452 ± 0.019
x1 = 0.0995 | 872.8 ± 0.48 | 863.45 ± 0.52 | 1171 ± 3 | 1136 ± 3 | 1.734 ± 0.022 | 1.373 ± 0.018
x1 = 0.1503 | 909.09 ± 0.51 | 899.13 ± 0.54 | 1153 ± 3 | 1117 ± 3 | 1.611 ± 0.021 | 1.283 ± 0.017
x1 = 0.2009 | 944.84 ± 0.54 | 934.26 ± 0.57 | 1136 ± 3 | 1099 ± 3 | 1.492 ± 0.019 | 1.196 ± 0.016
x1 = 0.2497 | 979.01 ± 0.57 | 967.92 ± 0.6 | 1119 ± 3 | 1082 ± 3 | 1.374 ± 0.018 | 1.111 ± 0.015
x1 = 0.3057 | 1017.84 ± 0.6 | 1006.01 ± 0.64 | 1102 ± 3 | 1064 ± 3 | 1.235 ± 0.016 | 1.011 ± 0.014
x1 = 0.3499 | 1048.26 ± 0.63 | 1036.01 ± 0.67 | 1089 ± 3 | 1052 ± 3 | 1.155 ± 0.015 | 0.952 ± 0.013
x1 = 0.4031 | 1084.7 ± 0.67 | 1071.81 ± 0.7 | 1074 ± 3 | 1036 ± 3 | 1.049 ± 0.014 | 0.886 ± 0.013
x1 = 0.4509 | 1117.15 ± 0.7 | 1103.72 ± 0.74 | 1061 ± 3 | 1023 ± 3 | 0.968 ± 0.013 | 0.818 ± 0.012
x1 = 0.5055 | 1154.04 ± 0.75 | 1139.98 ± 0.78 | 1046 ± 3 | 1009 ± 2 | 0.885 ± 0.013 | 0.76 ± 0.011
x1 = 0.554 | 1186.48 ± 0.78 | 1171.86 ± 0.82 | 1035 ± 3 | 998 ± 2 | 0.822 ± 0.012 | 0.714 ± 0.011
x1 = 0.5994 | 1216.69 ± 0.82 | 1201.5 ± 0.85 | 1025 ± 3 | 988 ± 2 | 0.776 ± 0.011 | 0.679 ± 0.011
x1 = 0.651 | 1250.99 ± 0.87 | 1235.18 ± 0.9 | 1015 ± 3 | 977 ± 2 | 0.727 ± 0.011 | 0.647 ± 0.01
x1 = 0.7033 | 1285.41 ± 0.91 | 1269.07 ± 0.94 | 1006 ± 3 | 968 ± 2 | 0.705 ± 0.011 | 0.618 ± 0.01
x1 = 0.7505 | 1316.56 ± 0.96 | 1299.61 ± 0.99 | 999 ± 3 | 961 ± 2 | 0.666 ± 0.011 | 0.602 ± 0.01
x1 = 0.7999 | 1348.87 ± 1 | 1331.42 ± 1 | 993 ± 3 | 955 ± 2 | 0.64 ± 0.01 | 0.585 ± 0.01
x1 = 0.8507 | 1382.01 ± 1.1 | 1363.98 ± 1.1 | 987 ± 3 | 950 ± 2 | 0.625 ± 0.01 | 0.572 ± 0.01
x1 = 0.9002 | 1414.19 ± 1.1 | 1395.63 ± 1.1 | 984 ± 3 | 947 ± 2 | 0.605 ± 0.01 | 0.557 ± 0.01
x1 = 0.9484 | 1445.46 ± 1.2 | 1426.51 ± 1.2 | 983 ± 3 | 947 ± 2 | 0.586 ± 0.01 | 0.539 ± 0.009
x1 = 1 | 1478.82 ± 1.2 | 1459.45 ± 1.2 | 985 ± 3 | 950 ± 2 | 0.556 ± 0.01 | 0.513 ± 0.009
